Results: patent US20240083846A1, “SMAC MIMETICS FOR TREATMENT OF CANCER, PROCESS FOR PREPARATION AND PHARMACEUTICAL COMPOSITION THEREOF” (COUNCIL OF SCIENTIFIC & INDUSTRIAL RESEARCH, priority 2020, published 2024)
“Also recorded” adds a separate entry of the source.

Assays:
XIAP BIR3 protein = XIAP BIR3 protein (Homo sapiens, UniProt P98170); assay: Fluorescence polarization competition binding assay, XIAP BIR3; conditions: displacement of AVPIAQK(FAM)-OH, fluorescence polarization; read-out: Target Binding BIR3 Ki
Procedure: The SMAC mimetics 1-9 were tested for their ability to displace the fluorescent labeled peptide AVPIAQK(FAM)-OH from XIAP BIR2 or XIAP BIR3 protein. The dose dependent binding experiment were then carried out by sequentially increasing the concentration of SMAC mimetic compounds at constant concentration of fluorescent labeled peptide and XIAP BIR2 or XIAP BIR3 protein. IC5- values were determined from the plot draw by prism software using nonlinear least-squares analysis. The Ki values of the SMAC mimetics were calculated which was based upon the measured IC50 values, the Kd value between tracer AVPIAQK(FAM)-OH and XIAP BIR2 or XIAP BIR3 complex, and the concentrations of the protein and tracer in the competition assay by using the web based program which are freely accessed at http://sw16.im.med.umich.edu/software/calc_ki/.In-silico.
Binding isotherms were plotted between FP reading versus log values of protein concentration in nM. The data was analysed using GraphPad prism and Kd values were determined using Boltzmann-sigmoidal non-linear regression curve fitting.

CT26 cells = assay: SRB cytotoxicity assay, CT26; assay type: cell-based; conditions: Colon (Mouse)
Procedure: (§1) In vitro cytotoxic activities of different compounds were assessed by using standard SRB assay in different cells. The absorbance of the treated and untreated cells was measured on a multi-well scanning spectrophotometer (Epoch Microplate Reader, Biotek, USA) at a wavelength of 510 nm. Percent growth inhibition was calculated by using the formula […].
(§2) SMAC mimetics promotes tumor cell selective cytotoxic effects. SW 620, HT 29, HCT 116 and VERO cells were treated with series of Smac mimetics at 10 μM dose for 48 hours and cytotoxicity was measured by SRB assay. As C6 had shown robust in-vitro cytotoxic effect against tumor cells but not to VERO cells, we determined IC50 value of C6 against different types of cancer cell lines. ICso values are represented in Table 2.

HCC1806 cells = assay: SRB cytotoxicity assay, HCC1806; assay type: cell-based; conditions: Homo sapiens, Breast
Procedure: as §1, §2

A-549 cells = assay: SRB cytotoxicity assay, A-549; assay type: cell-based; conditions: Homo sapiens, A549, Lung
Procedure: as §1, §2

786-O cells = assay: SRB cytotoxicity assay, 786-O; assay type: cell-based; conditions: Homo sapiens, 786-0, Kidney
Procedure: as §1, §2

PC-3 cells = assay: SRB cytotoxicity assay, PC-3; assay type: cell-based; conditions: Homo sapiens, Prostrate
Procedure: as §1, §2

A172 cells = assay: SRB cytotoxicity assay, A172; assay type: cell-based; conditions: Homo sapiens, A 172, Brain
Procedure: as §1, §2

PANC-1 cells = assay: SRB cytotoxicity assay, PANC-1; assay type: cell-based; conditions: Homo sapiens, Pancreas
Procedure: as §1, §2

B-16 cells = assay: SRB cytotoxicity assay, B-16; assay type: cell-based; conditions: B16, Melanoma (Mouse)
Procedure: as §1, §2

K562 cells = assay: SRB cytotoxicity assay, K562; assay type: cell-based; conditions: Homo sapiens, Leukemia
Procedure: as §1, §2

[1] = Stability studies of C6 (SIF, SGF, plasma, microsomes); assay type: in vitro ADME
SW-620 xenograft = assay: Cisplatin resistant SW-620 xenograft model; assay type: in vivo, nude Crl: CD1-Foxnlnu mice; conditions: FIG. 7
Description: All the animals were maintained in a pathogen-free facility under a day—night cycle.

[2] = xenograft studies, FIG. 7 and FIG. 8
Procedure: Mice were randomly assigned to groups by a blinded independent investigator. Throughout the study, the tumor was measured with an electronic digital caliper at a regular interval, and the tumor volume was calculated using standard formula V=Π/6×a2×b, where ‘a’ is the short and ‘b’ is the long tumor axis. At the end of the experiment, mice were sacrificed, and subcutaneous tumors were dissected for further studies. Parts of harvested tumors were minced into small pieces with sterile forceps and scissors and homogenized for lysate preparation.

Annexin-V positive cells = assay: Annexin-V apoptosis analysis; assay type: cell-based; conditions: FIG. 2, left
PARP, Caspase-3, cIAP-1 = assay: Apoptosis antibody array / apoptotic markers; assay type: cell-based; conditions: treated cells vs control, FIG. 2 right and FIG. 3
Procedure: Apoptosis array was performed by using Proteome Profiler Human Apoptosis Array Kit (ARY009) from R&D Systems following the manufacturer's instructions. The detailed assay procedure was followed. The images were captured by the gel documentation system (Bio-Rad chemidoc XRS plus), while ImageJ software (NIH) was used for analysis and quantification. Plotly software was used for heatmap generation (Montreal, Canada).

in vivo = conditions: mouse
Procedure: SIF, SGF and other stability studies were performed by following standard protocol. […] Mice were administered their respective doses according to body weight by intravenous (lateral vein), Subcutaneous route and Oral respectively. Blood samples were collected at 0.083, 0.25, 0.5, 0.75, 1, 2, 4, 8, 12, 24 and 48 hours. Plasma was separated and processed for analysis. For pharmacokinetic analysis, plasma concentration versus time data were plotted and analyzed by non-compartmental analysis method using WinNonlin (Pharsight, Mountain View, CA) software.

XIAP BIR3 protein, sequence (P98170 241-356 limits assumed): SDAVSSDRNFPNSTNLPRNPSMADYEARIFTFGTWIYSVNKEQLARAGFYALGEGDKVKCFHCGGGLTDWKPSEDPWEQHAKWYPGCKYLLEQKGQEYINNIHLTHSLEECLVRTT

With `CC[C@H](C)[C@H](NC(=O)[C@@H]1CC[C@H](c2ccc(C)o2)N1C(=O)[C@@H](NC(=O)[C@H](C)NC)C(C)C)C(=O)NC(c1ccccc1)c1ccccc1` [Compound 6, (2S,5R)-N-((2S,3S)-1-(benzhydrylamino)-3-methyl-1-oxopentan-2-yl)-1-((S)-3-methyl-2-((S)-2-(methylamino)propanamido)butanoyl)-5-(5-methylfuran-2-yl)pyrrolidine-2-carboxamide] the Ki (XIAP BIR3 protein) was 0.58 µM, the IC50 (CT26 cells) was > 10 µM and the IC50 (HCC1806 cells) was 5.79 µM. The IC50 (A-549 cells) was > 10 µM, the IC50 (786-O cells) was 7.2 µM and the IC50 (PC-3 cells) was 6.02 µM. For the same compound, the IC50 (A172 cells) was 6.88 µM, the IC50 (PANC-1 cells) was 5.83 µM and the IC50 (B-16 cells) was 6.7 µM. For the same compound, the IC50 (K562 cells) was 9.1 µM, the “Stability in HLM” value ([1]; HLM) was “quite stable” and the “Stability in MLM” value ([1]; MLM) was “quite stable”. The “Stability in SGF” value ([1]; SGF, listed as C6) was “highly stable; also recorded: quite stable”, the “Stability in SIF” value ([1]; SIF, listed as C6) was “highly stable; also recorded: quite stable” and the Stability in microsome ([1]; microsome) was “highly stable”. For the same compound, the Stability in plasma ([1]; plasma) was “quite stable”, the “In vivo anti tumor efficacy” value (SW-620 xenograft) was “potent anti tumor efficacy” and the “Body weight / tolerability during course of treatment” value [2] was “no weight loss was observed”. For the same compound, the “Apoptosis (Annexin-V positive cells)” value (Annexin-V positive cells) was “promotes smac driven apoptotic features”, the “Hallmark apoptotic features (PARP, Caspase-3, cIAP-1)” value (PARP, Caspase-3, cIAP-1) was “cleavage of PARP and Caspase-3 and degradation of cIAP-1” and the half-life (in vivo; iv, 4 mg/kg) was 0.19 ± 0.05 h. For the same compound, the half-life (in vivo; po, 30 mg/kg) was 3.84 ± 1.8 h and the half-life (in vivo; sc, 30 mg/kg) was 2.1 ± 0.15 h.
